The IC50 is the midpoint of a concentration-inhibition curve. A low value points to greater potency.

This note sets out measurements from PMC5319852 (Biochemistry, 2016).

This test addresses Plasmodium vivax geranylgeranyl diphosphate synthase (PvGGPPS) (Plasmodium vivax, UniProt A5K4U6). Description: X-ray co-crystal structure. Format: biochemical.

Turning to `CCCCCCCCCCOc1cccc(COc2ccc([N+](=O)[O-])cc2C(=O)O)c1` [BPH-1186], half-maximal inhibition (IC50) was put at 50 µM. This lies in the double-digit micromolar range.
